Patent US9802960B2 (MILLENNIUM PHARMACEUTICALS, INC., priority 2014, dated 2017)

target: Human VPS34 (Homo sapiens (Human), UniProt Q8NEB9); test: Human VPS34 enzyme assay (Adapta TR-FRET); assay type: biochemical; conditions: compound concentration 1.11 μM
Sequence (Q8NEB9 whole entry): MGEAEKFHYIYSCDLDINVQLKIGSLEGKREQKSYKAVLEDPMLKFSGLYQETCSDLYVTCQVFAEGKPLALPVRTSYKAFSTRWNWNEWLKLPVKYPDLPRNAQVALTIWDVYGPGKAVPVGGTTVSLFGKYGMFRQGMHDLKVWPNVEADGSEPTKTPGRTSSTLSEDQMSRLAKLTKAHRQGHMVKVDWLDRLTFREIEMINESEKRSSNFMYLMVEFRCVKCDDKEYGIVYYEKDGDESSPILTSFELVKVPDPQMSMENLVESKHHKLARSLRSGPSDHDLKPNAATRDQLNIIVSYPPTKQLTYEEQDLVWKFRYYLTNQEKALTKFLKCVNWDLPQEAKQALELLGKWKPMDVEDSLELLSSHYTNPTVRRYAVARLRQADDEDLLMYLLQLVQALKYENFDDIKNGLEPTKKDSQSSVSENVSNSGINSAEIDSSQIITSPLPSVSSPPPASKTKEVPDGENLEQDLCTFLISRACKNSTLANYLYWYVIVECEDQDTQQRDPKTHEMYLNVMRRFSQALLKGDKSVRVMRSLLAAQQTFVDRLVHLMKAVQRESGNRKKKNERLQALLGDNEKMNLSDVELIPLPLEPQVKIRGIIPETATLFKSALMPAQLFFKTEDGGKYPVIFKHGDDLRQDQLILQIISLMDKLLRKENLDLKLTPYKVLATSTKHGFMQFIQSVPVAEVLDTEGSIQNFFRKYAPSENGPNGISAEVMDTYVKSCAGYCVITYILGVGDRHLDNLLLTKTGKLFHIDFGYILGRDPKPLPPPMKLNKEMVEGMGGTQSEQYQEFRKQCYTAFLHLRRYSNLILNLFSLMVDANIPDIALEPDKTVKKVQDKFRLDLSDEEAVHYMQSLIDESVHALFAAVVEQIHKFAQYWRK

| Percent Inhibition | Compound |
| --- | --- |
| >99% | CC(=O)Nc1cc(-c2ccnc(Nc3ccnc(C4CC4)n3)c2)cn2nccc12 [Compound I-371, N-(6-{2-[(2-cyclopropylpyrimidin-4-yl)amino]pyridin-4-yl}pyrazolo[1,5-a]pyridin-4-yl)acetamide] |
| >99% | CC(=O)Nc1cc(-c2cnc(Cl)c(NS(=O)(=O)N(C)C)c2)ccn1 [Compound I-372, N-{6-chloro-5-[(dimethylsulfamoyl)amino]-3,4′-bipyridin-2′-yl}acetamide] |

same assay, conditions: compound concentration 1.11 μM; read-out: Percent Inhibition

| inhibition at 1.11 µM | Compound |
| --- | --- |
| 95% | CC(=O)Nc1cc(-c2cnc(Cl)c(NS(=O)(=O)c3ccc(C#N)cc3Cl)c2C)ccn1 [Compound I-362, N-(6-chloro-5-{[(2-chloro-4-cyanophenyl)sulfonyl]amino}-4-methyl-3,4′-bipyridin-2′-yl)acetamide] |
| 83% | Cc1nccc(Nc2cc(-c3cnc(C)c(OCc4ccccc4)c3)ccn2)n1 [Compound I-363, 5-(benzyloxy)-6-methyl-N-(2-methylpyrimidin-4-yl)-3,4′-bipyridin-2′-amine] |
| > 99% | CCOC(=O)Nc1cc(-c2cnc(C)c(NS(=O)(=O)N(C)C)c2)ccn1 [Compound I-364, ethyl {5-[(dimethylsulfamoyl)amino]-6-methyl-3,4′-bipyridin-2′-yl}carbamate] |
| > 99% | CC(=O)Nc1cc(-c2cncc(S(=O)(=O)N(C)c3ccccc3)c2)ccn1 [Compound I-365, N-{5-[methyl(phenyl)sulfamoyl]-3,4′-bipyridin-2′-yl}acetamide] |
| > 99% | CC(=O)Nc1cc(-c2cnc(Cl)c(S(=O)(=O)NC34CC(C3)C4)c2)ccn1 [Compound I-366, N-[5-(bicyclo[1.1.1]pent-1-ylsulfamoyl)-6-chloro-3,4′-bipyridin-2′-yl]acetamide] |
| 76% | CCNC(=O)Nc1cc(-c2ccnc(Nc3ccnc(C)n3)c2)cnc1C [Compound I-367, 1-ethyl-3-{6-methyl-2′-[(2-methylpyrimidin-4-yl)amino]-3,4′-bipyridin-5-yl}urea] |
| 96% | Cc1ncc(-c2ccnc(Nc3ccnc(C4CC4)n3)c2)cc1NC(=O)N1CC(F)(F)C1 [Compound I-368, N-(2′-((2-cyclopropylpyrimidin-4-yl)amino)-6-methyl-[3,4′-bipyridin]-5-yl)-3,3-difluoroazetidine-1-carboxamide] |
| 97% | Cc1c(-c2ccnc(Nc3ccnc(C4CC4)n3)c2)cnc(Cl)c1C(=O)O [Compound I-369, 6-chloro-2′-((2-cyclopropylpyrimidin-4-yl)amino)-4-methyl-[3,4′-bipyridine]-5-carboxylic acid] |
| > 99% | CCN(CC)S(=O)(=O)c1cc(-c2ccnc(NC(C)=O)c2)cnc1C [Compound I-370, N-[5-(diethylsulfamoyl)-6-methyl-3,4′-bipyridin-2′-yl]acetamide] |
| > 99% | CCCCS(=O)(=O)Nc1cc(-c2ccnc(NC(C)=O)c2)cnc1C [Compound I-373, N-{5-[(butylsulfonyl)amino]-6-methyl-3,4′-bipyridin-2′-yl}acetamide] |
| > 99% | CC(=O)Nc1cc(-c2cnc(C)c(NS(=O)(=O)N3CCC(F)(F)CC3)c2)ccn1 [Compound I-374, N-(5-{[(4,4-difluoropiperidin-1-yl)sulfonyl]amino}-6-methyl-3,4′-bipyridin-2′-yl)acetamide] |
| 99% | COc1nc(C)nc(Nc2cc(-c3cnc(C)c(NS(=O)(=O)c4ccc(F)cc4F)c3)ccn2)n1 [Compound I-375, 2,4-difluoro-N-{2′-[(4-methoxy-6-methyl-1,3,5-triazin-2-yl)amino]-6-methyl-3,4′-bipyridin-5-yl}benzenesulfonamide] |
| 94% | CC(=O)Nc1cc(-c2cnc3c(c2)S(=O)(=O)N(C24CC(C2)C4)CCO3)ccn1 [Compound I-376, N-{4-[2-(bicyclo[1.1.1]pent-1-yl)-1,1-dioxido-3,4-dihydro-2H-pyrido[2,3-b][1,4,5]oxathiazepin-8-yl]pyridin-2-yl}acetamide] |
| 95% | CC(=O)Nc1cc(-c2cnc(C)c(NS(=O)(=O)c3cccc(F)c3F)c2)ccn1 [Compound I-377, N-(5-{[(2,3-difluorophenyl)sulfonyl]amino}-6-methyl-3,4′-bipyridin-2′-yl)acetamide] |
| 66% | Cc1nccc(Nc2cc(-c3cnc4c(c3)C(=O)N(Cc3ccccc3)CC4)ccn2)n1 [Compound I-378, 6-benzyl-3-[2-[(2-methylpyrimidin-4-yl)amino]-4-pyridyl]-7,8-dihydro-1,6-naphthyridin-5-one] |
| 47% | Cc1nccc(Nc2cc(-c3cnc(C)c(OCCN(C)C)c3)ccn2)n1 [Compound I-379, 5-[2-(dimethylamino)ethoxy]-6-methyl-N-(2-methylpyrimidin-4-yl)-3,4′-bipyridin-2′-amine] |
| 95% | CC(=O)Nc1cc(-c2cnc(C#N)c(N3CCCCC3C)c2)ccn1 (stereo not drawn) [Compound I-380, N-[6-cyano-5-(2-methylpiperidin-1-yl)-3,4′-bipyridin-2′-yl]acetamide] |
| > 99% | Cc1nccc(Nc2cc(-c3cnc(Cl)c(NS(=O)(=O)N(C)C)c3C)ccn2)n1 [Compound I-381, N′-{6-chloro-4-methyl-2′-[(2-methylpyrimidin-4-yl)amino]-3,4′-bipyridin-5-yl}-N,N-dimethylsulfuric diamide] |
| > 99% | Cc1nc(Nc2cc(-c3cnc(C)c(NS(=O)(=O)c4ccc(F)cc4F)c3)ccn2)nc(C2CC2)n1 [Compound I-382, N-{2′-[(4-cyclopropyl-6-methyl-1,3,5-triazin-2-yl)amino]-6-methyl-3,4′-bipyridin-5-yl}-2,4-difluorobenzene sulfonamide] |
| 91% | CCOC(=O)Nc1cc(-c2cnc(Cl)c(NS(=O)(=O)c3ccc(F)cc3F)c2C)ccn1 [Compound I-383, ethyl (6-chloro-5-{[(2,4-difluorophenyl)sulfonyl]amino}-4-methyl-3,4′-bipyridin-2′-yl)carbamate] |
| 73% | CC(=O)Nc1cc(-c2cncc(N(CCO)S(=O)(=O)c3ccc(F)cc3F)c2)ccn1 [Compound I-384, N-(5-{[(2,4-difluorophenyl)sulfonyl](2-hydroxyethyl)amino}-3,4′-bipyridin-2′-yl)acetamide] |
| 96% | CC(=O)Nc1cc(-c2cnc(C)c(N3CCN(C)S3(=O)=O)c2)ccn1 [Compound I-386, N-[6-methyl-5-(5-methyl-1,1-dioxido-1,2,5-thiadiazolidin-2-yl)-3,4′-bipyridin-2′-yl]acetamide] |
| > 99% | CC(=O)Nc1cc(-c2cnc(C)c(N3CCCNS3(=O)=O)c2)ccn1 [Compound I-387, N-[5-(1,1-dioxido-1,2,6-thiadiazinan-2-yl)-6-methyl-3,4′-bipyridin-2′-yl]acetamide] |
| 98% | Cc1ncc(-c2ccnc(NC(=O)C3CC3)c2)cc1C(=O)N(C)C12CC(C1)C2 [Compound I-388, N-(bicyclo[1.1.1]pent-1-yl)-2′-[(cyclopropylcarbonyl)amino]-N,6-dimethyl-3,4′-bipyridine-5-carboxamide] |
| 95% | CCOC(=O)Nc1cc(-c2cnc(C)c(NS(=O)(=O)c3ccc(F)cc3F)c2)ccn1 [Compound I-389, ethyl (5-{[(2,4-difluorophenyl)sulfonyl]amino}-6-methyl-3,4′-bipyridin-2′-yl)carbamate] |
